Assay results: ChEMBL document CHEMBL5331066, “Structure-guided design of novel HEPT analogs with enhanced potency and safety: From Isopropyl-HEPTs to Cyclopropyl-HEPTs” (Eur J Med Chem, 2023)

How the values were obtained:
[1] = Cytotoxicity against human MT4 cells assessed as reduction in cell viability; assay type: toxicity, cell-based
[2] = test system: Human immunodeficiency virus 1; assay: Antiviral activity against wild type HIV1 IIIB infected in human MT4 cells assessed as protection against virus-induced cytopathicity; assay type: functional, organism-based; conditions: Human immunodeficiency virus 1, IIIB
[3] = test system: Human immunodeficiency virus 1; assay: Antiviral activity against HIV1 harboring E138K mutant infected in human MT4 cells assessed as protection against virus-induced cytopathicity; assay type: functional, organism-based; conditions: Human immunodeficiency virus 1, MT4
[4] = test system: Human immunodeficiency virus 1; assay: Antiviral activity against HIV1 harboring Y181C mutant infected in human MT4 cells assessed as protection against virus-induced cytopathicity; assay type: functional, organism-based; conditions: Human immunodeficiency virus 1, MT4
[5] = test system: Human immunodeficiency virus 1; assay: Antiviral activity against HIV1 harboring Y188L mutant infected in human MT4 cells assessed as protection against virus-induced cytopathicity; assay type: functional, organism-based; conditions: Human immunodeficiency virus 1, MT4
[6] = target: Human immunodeficiency virus type 1 reverse transcriptase (Human immunodeficiency virus 1, UniProt Q72547); assay: Inhibition of wild type HIV-1 reverse transcriptase assessed as inhibition of biotin deoxyuridine triphosphate incorporation into […]
[7] = Selectivity index, ratio of CC50 for cytotoxicity against human MT4 cells to EC50 for antiviral activity against wild type HIV1 IIIB infected in human MT4 cells; assay type: toxicity, cell-based; conditions: read-out: Ratio CC50/EC50
[8] = test system: Human immunodeficiency virus 1; assay: Antiviral activity against HIV1 harboring K103 N mutant infected in human MT4 cells assessed as protection against virus-induced cytopathicity; assay type: functional, organism-based; conditions: Human immunodeficiency virus 1, MT4
[9] = test system: Human immunodeficiency virus 1; assay: Antiviral activity against HIV1 harboring L100I mutant infected in human MT4 cells assessed as protection against virus-induced cytopathicity; assay type: functional, organism-based; conditions: Human immunodeficiency virus 1, MT4

SMILES | CC50 [1] [µM] | EC50 [2] [µM] | EC50 [3] [µM] | EC50 [4] [µM] | EC50 [5] [µM] | IC50 [6] [µM] | selectivity ratio [7] | EC50 [8] [µM] | EC50 [9] [µM]
Cc1ccc(Sc2c(C3CC3)c(=O)[nH]c(=O)n2COCc2ccccc2)c(C)c1 | 32.2 | 4.75 | > 32.2 | > 32.2 | > 32.2 | 5.39 | 7 | > 32.2 | 4.75
O=c1[nH]c(=O)n(COCc2ccccc2)c(Sc2ccc(Br)cc2)c1C1CC1 | 25.9 | 6.18 | 9.8 | 4.11 | > 25.9 | 3.92 | > 4 | > 25.9 | 4.05
COc1ccccc1Sc1c(C2CC2)c(=O)[nH]c(=O)n1COCc1ccccc1 | 33.6 | 0.17 | 0.83 | 3.82 | > 33.6 | 0.56 | 197 | ≥ 9.28 | 0.61
O=c1[nH]c(=O)n(COCc2ccccc2)c(Sc2ccccc2Br)c1C1CC1 | 27.2 | 0.15 | 0.41 | 2.66 | > 27.2 | 0.16 | 184 | 7.21 | 0.54
Cc1ccccc1Sc1c(C2CC2)c(=O)[nH]c(=O)n1COCc1ccccc1 | 30.1 | 0.15 | 0.89 | 5.35 | > 30.1 | 0.3 | 203 | > 7.96 | 1.07
COc1cccc(Sc2c(C3CC3)c(=O)[nH]c(=O)n2COCc2ccccc2)c1 | 33.1 | 0.085 | 0.49 | 5.1 | > 33.1 | 0.18 | 383 | 9.31 | 0.27
Cc1cc(C)cc(Sc2c(C3CC3)c(=O)[nH]c(=O)n2COCc2ccccc2)c1 | 34 | 0.023 | 0.14 | 1.03 | 3.75 | 0.08 | 1480 | 1.05 | 0.13
